Source: PMC2774621, “Homogenous Fluorescent Assays for Characterizing Small-Molecule Activators of AMP-Activated Protein Kinase (AMPK)” (Current Chemical Genomics, 2008)

Experiments:
[1] = system: rat-liver or recombinant AMPK (α1β1γ1); set-up: method as in PMID 16753576; details: read-out: EC50 of AMPK activation; cited from earlier work
AMPK α1β1γ1 = target: T1, AMPK α1β1γ1 (Homo sapiens, UniProt P54619+Q13131); experiment: TR-FRET activity assay (LanthaScreen, fluorescein-CREBtide); assay type: biochemical; details: ATP 50 µM, substrate 400 nM, read-out: Activator EC50
T1 construct: made in house; host or cells: Sf9 insect cells (baculovirus)
T1 sequence (Q13131 whole entry): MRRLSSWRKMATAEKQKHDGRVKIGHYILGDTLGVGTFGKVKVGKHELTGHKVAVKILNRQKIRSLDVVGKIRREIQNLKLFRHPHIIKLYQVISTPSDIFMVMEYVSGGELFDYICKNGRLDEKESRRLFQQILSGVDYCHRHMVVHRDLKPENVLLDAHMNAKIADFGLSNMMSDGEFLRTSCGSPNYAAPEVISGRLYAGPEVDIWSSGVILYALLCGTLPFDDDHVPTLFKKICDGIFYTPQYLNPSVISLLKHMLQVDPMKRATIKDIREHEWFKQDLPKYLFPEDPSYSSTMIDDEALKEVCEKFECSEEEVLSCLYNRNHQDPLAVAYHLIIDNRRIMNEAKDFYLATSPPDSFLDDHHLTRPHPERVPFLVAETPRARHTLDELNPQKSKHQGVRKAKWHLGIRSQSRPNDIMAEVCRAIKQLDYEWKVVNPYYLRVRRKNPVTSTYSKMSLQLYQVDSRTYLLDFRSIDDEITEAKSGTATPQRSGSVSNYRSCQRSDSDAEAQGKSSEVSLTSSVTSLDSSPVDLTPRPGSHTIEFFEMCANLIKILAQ
T1 sequence (Q9Y478 whole entry partner): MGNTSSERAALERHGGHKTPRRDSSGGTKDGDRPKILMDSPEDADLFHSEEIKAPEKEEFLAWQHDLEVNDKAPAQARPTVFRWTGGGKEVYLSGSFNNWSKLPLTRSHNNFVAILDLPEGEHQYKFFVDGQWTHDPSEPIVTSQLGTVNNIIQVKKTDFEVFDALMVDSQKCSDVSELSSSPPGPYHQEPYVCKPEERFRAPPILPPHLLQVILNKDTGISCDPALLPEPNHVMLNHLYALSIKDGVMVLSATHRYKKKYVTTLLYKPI
T1 sequence (P54619 whole entry): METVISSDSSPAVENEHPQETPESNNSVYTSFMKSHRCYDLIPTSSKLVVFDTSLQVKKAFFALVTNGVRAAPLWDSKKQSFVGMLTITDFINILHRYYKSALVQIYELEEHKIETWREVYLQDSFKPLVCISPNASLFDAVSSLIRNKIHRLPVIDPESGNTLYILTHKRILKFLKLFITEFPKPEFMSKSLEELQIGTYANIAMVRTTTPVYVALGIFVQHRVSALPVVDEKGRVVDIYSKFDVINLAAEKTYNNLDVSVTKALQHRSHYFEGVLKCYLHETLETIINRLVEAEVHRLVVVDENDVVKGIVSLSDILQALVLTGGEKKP
Description: (§1) Activators and inhibitors were prepared as described for the radiometric assay. Assays were performed as follows: 2.5 µL of the inhibitor or activator working stock was added to a 5 µL solution of kinase and substrate, followed by 2.5 µL of ATP to start the assay. Assays were performed in quadruplicate. […] After one hour, a 10 µL solution of EDTA and terbium labeled phospho-specific antibody in 20 mM Tris, pH 7.5 and 0.01% NP-40 was added to a final well volume of 20 µL, a final antibody concentration of 1 nM, and a final EDTA concentration of 10 mM. After a 30 minute incubation at room temperature the assay plate was read on a BMG Pherastar plate reader using the LanthaScreen™ filter module. The TR-FRET ratio was calculated as the intensity of the acceptor signal divided by the intensity of the donor signal.
(§2) Data analysis and curve-fitting was performed using GraphPad Prism software (GraphPad Software, Inc, San Diego CA).

AMPK α2β1γ1 [2] = target: T2, AMPK α2β1γ1 (Homo sapiens, UniProt P54619+P54646); experiment: as above; assay type: biochemical; details: TR-FRET, ATP 150 µM, substrate 400 nM; read-out: Activator EC50
T2 construct: made in house; host or cells: Sf9 insect cells (baculovirus)
T2 sequence (P54646 whole entry): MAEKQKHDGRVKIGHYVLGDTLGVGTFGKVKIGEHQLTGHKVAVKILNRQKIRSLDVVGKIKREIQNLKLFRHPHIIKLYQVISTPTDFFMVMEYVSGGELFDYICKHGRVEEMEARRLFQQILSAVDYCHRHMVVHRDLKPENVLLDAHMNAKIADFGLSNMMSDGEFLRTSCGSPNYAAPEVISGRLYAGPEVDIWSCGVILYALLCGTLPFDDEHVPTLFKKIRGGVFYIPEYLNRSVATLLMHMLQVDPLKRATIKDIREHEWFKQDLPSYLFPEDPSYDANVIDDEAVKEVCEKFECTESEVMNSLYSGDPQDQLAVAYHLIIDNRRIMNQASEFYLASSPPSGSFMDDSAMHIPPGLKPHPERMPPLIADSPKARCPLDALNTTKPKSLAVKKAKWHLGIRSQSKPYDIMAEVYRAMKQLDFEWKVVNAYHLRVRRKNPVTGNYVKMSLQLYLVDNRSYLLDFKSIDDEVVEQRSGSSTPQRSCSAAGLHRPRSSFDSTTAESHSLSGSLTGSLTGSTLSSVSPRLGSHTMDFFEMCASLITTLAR
T2 sequence (Q9Y478 whole entry partner): as the sequence (Q9Y478 whole entry partner) above
T2 sequence (P54619 whole entry): as the sequence (P54619 whole entry) above
Description: as §1, §2

[3] = system: partially purified human AMPK; set-up: method as in PMID 8185610; details: cited from earlier work
AMPK α1β1γ1 and α2β1γ1 [4] = target: T3, AMPK α1β1γ1 and α2β1γ1 (Homo sapiens, UniProt P54619+P54646+Q9Y478); experiment: Summary statements across all assay formats (radiometric, TR-FRET, FRET, CHEF); assay type: biochemical; details: α2β1γ1 isoform
T3 construct: made in house; host or cells: Sf9 insect cells (baculovirus)
T3 sequence (P54646 whole entry, canonical isoform): as the sequence (P54646 whole entry) above
T3 sequence (Q9Y478 whole entry, canonical isoform): as the sequence (Q9Y478 whole entry partner) above
T3 sequence (P54619 whole entry, canonical isoform): as the sequence (P54619 whole entry) above
Description: (§3) Kinase reactions were performed at room temperature in 50 mM HEPES pH 7.5, 0.01% BRIJ-35, 10 mM MgCl2, and 1 mM EGTA in a 30 µL assay volume in 96-well plates. For the inhibition experiments, a 2-fold dilution series of inhibitor stock solutions was first prepared in 100% DMSO at 100-fold concentration of inhibitor to be used in the assay. Prior to the assay, 4 µL of each inhibitor concentration was further diluted to 100 µL in assay buffer to prepare a working stock of inhibitor in 4% DMSO at 4-fold the final assay concentration. For the activation experiments, activators were prepared in 100% H2O at 4-fold the concentration to be tested in the assay. Assays were performed as follows: 7.5 µL of the inhibitor or activator working stock was added to a 17.5 µL solution of assay buffer, substrate and [^32P]-ATP (0.5 µCi/well), followed by 5 µL of enzyme to start the assay. All assays were performed in triplicate. The final concentration of SAMS peptide substrate in the reaction was 200 µM. AMPK α1β1γ1 was used at 334 ng/mL (1.8 nM) in the inhibition experiments and 83.3 ng/mL (0.44 nM) in the activation experiments, at an ATP concentration of 35 µM. AMPK α2β1γ1 was used at 1670 ng/mL (8.9 nM) in the inhibition experiments and 267 ng/mL (1.4 nM) in the activation experiments, at an ATP concentration of 65 µM. After 10 minutes, 20 µL of the reaction was spotted onto a p81 filter. The filters were washed three times in 0.5% phosphoric acid, and twice in distilled water before being counted in Beckman Coulter Ready Safe liquid scintillation cocktail using a Beckman Coulter LS6500 Multipurpose Scintillation Counter. Scintillation Counter output (cpm) was used to calculate specific activity (nmole / (min•mg)).
(§4) Kinase reactions were performed in a 10 µL assay volume at room temperature in 384-well low volume plates (Corning model 3676) using the same assay buffer as the radiometric assay. Activators and inhibitors were prepared as described for the radiometric assay. Assays were performed as follows: 2.5 µL of the inhibitor or activator working stock was added to a 5 µL solution of kinase and substrate, followed by 2.5 µL of ATP to start the assay. Assays were performed in quadruplicate. The final concentration of fluorescein-labeled CREBtide peptide substrate (derived from residues 123-136 of CREB protein) in the reaction was 400 nM. AMPK α1β1γ1 was used at 600 ng/mL (3.1 nM) in the inhibition experiments and 200 ng/mL (1.1 nM) in the activation experiments, at an ATP concentration of 50 µM. AMPK α2β1γ1 was used at 5 µg/mL (26.5 nM) in the inhibition experiments and 600 ng/mL (3.2 nM) in the activation experiments, at an ATP concentration of 150 µM. After one hour, a 10 µL solution of EDTA and terbium labeled phospho-specific antibody in 20 mM Tris, pH 7.5 and 0.01% NP-40 was added to a final well volume of 20 µL, a final antibody concentration of 1 nM, and a final EDTA concentration of 10 mM. After a 30 minute incubation at room temperature the assay plate was read on a BMG Pherastar plate reader using the LanthaScreen™ filter module. The TR-FRET ratio was calculated as the intensity of the acceptor signal divided by the intensity of the donor signal.
(§5) Kinase reactions were performed in a 10 µL assay volume at room temperature in 384-well low volume plates (Corning model 3676) using the same assay buffer as the radiometric assay. Inhibitors and activators were prepared as described for the radiometric assays. Assays were performed as follows: 2.5 µL of the inhibitor or activator working stock was added to a 5 µL solution of kinase and substrate, followed by 2.5 µL of ATP to start the assay. All assays were performed in quadruplicate. The final concentration of Z’-LYTE™ S/T23 peptide substrate in the reaction was 2 µM. AMPK α1β1γ1 was used at 79 ng/mL (0.42 nM) in the inhibition experiments and 41 ng/mL (0.22 nM) in the activation experiments, at an ATP concentration of 50 µM. […]

AMPK α1β1γ1 and α2β1γ1 [5] = target: AMPK α1β1γ1 and α2β1γ1 (Homo sapiens, UniProt P54619+P54646); experiment: as above; assay type: biochemical; details: read-out: half-maximal stimulatory concentration; all assay formats
AMPK α1β1γ1 and α2β1γ1 (Homo sapiens, UniProt P54619+P54646), sequence (P54619 whole entry): as above
AMPK α1β1γ1 and α2β1γ1 (Homo sapiens, UniProt P54619+P54646), sequence (P54646 whole entry): as the sequence (P54646 whole entry) above
AMPK α1β1γ1 and α2β1γ1 (Homo sapiens, UniProt P54619+P54646), sequence (Q9Y478 whole entry partner): as the sequence (Q9Y478 whole entry partner) above
Description: as §3, §4, §5

AMPK α1β1γ1 and α2β1γ1 [6] = target: T4, AMPK α1β1γ1 and α2β1γ1 (Homo sapiens, UniProt P54619+Q13131+Q9Y478); experiment: as above; assay type: biochemical; details: α1β1γ1 isoform, any formats
T4 construct: made in house; host or cells: Sf9 insect cells (baculovirus)
T4 sequence (Q13131 whole entry, canonical isoform): as the sequence (Q13131 whole entry) above
T4 sequence (Q9Y478 whole entry, canonical isoform): as the sequence (Q9Y478 whole entry partner) above
T4 sequence (P54619 whole entry, canonical isoform): as the sequence (P54619 whole entry) above
Description: as §3, §4, §5

[7] = system: partially purified rat AMPK; set-up: method as in PMID 8185610; details: cited from earlier work
AMPK α2β1γ1 [8] = target: T2, AMPK α2β1γ1; experiment: Radiometric kinase assay (SAMS peptide, 32P-ATP); assay type: biochemical
Description: as §3, §2

| SMILES | EC50 [1] [µM] | EC50 (AMPK α1β1γ1) [µM] | EC50 (AMPK α2β1γ1 [2]) [µM] | fold stimulation (maximal extent of activation) [3] [fold] | maximal extent of activation (AMPK α1β1γ1 and α2β1γ1 [4]) [fold] | EC50 (AMPK α1β1γ1 and α2β1γ1 [5]) [µM] | activation before inhibiting kinase activity to below basal levels (AMPK α1β1γ1 and α2β1γ1 [6]) | fold stimulation (maximal extent of activation) ([7]; partially purified rat AMPK) [fold] | EC50 ([7]; rat AMPK, read-out: half-maximal stimulatory concentration) [µM] | EC50 (AMPK α2β1γ1 [8]) [µM] | Max. fold-activation (AMPK α2β1γ1 [8]; radiometric, ATP 65 µM, SAMS 200 µM) [fold] |
| --- | --- | --- | --- | --- | --- | --- | --- | --- | --- | --- | --- |
| N#Cc1c(O)c2c(-c3ccc(-c4ccccc4O)cc3)csc2[nH]c1=O [A-769662] | ~0.8 | – | – | – | – | – | – | – | – | – | – |
| Nc1ncnc2c1ncn2[C@@H]1O[C@H](COP(N)(=O)O)[C@@H](O)[C@H]1O [APR, adenosine 5′-monophosphoramidate] | – | 722 | 43 | 2.25 | 2 to 3 | > 50 | negligible activation | 1.5 | 1.9 | 194 | 1.9 |
